Assay results as given in patent US20220177508A1, “C10-Cyclic Substituted 13-Membered Macrolides and Uses Thereof” (Zikani Therapeutics, Inc., priority 2018, published 2022).
Values after ≈ are worked out from the molar mass of the structure shown.

Key:
Type in all cases: cell-based
[1] = tested on: S. aureus MP-12; assay: Broth dilution MIC determination (CLSI), S. aureus MP-12; details: Staphylococcus aureus, MP12; strain MP-12, broth dilution
[2] = tested on: E. coli MP-4; assay: Broth dilution MIC determination (CLSI), E. coli MP-4; details: Escherichia coli, MP4; strain MP-4, broth dilution; read-out: MIC E. coli MP-4
[3] = tested on: K. pneumoniae MP-546; assay: Broth dilution MIC determination (CLSI), K. pneumoniae MP-546; details: Klebsiella pneumoniae, MP546; strain MP-546, broth dilution
[4] = tested on: P. aeruginosa MP-3; assay: Broth dilution MIC determination (CLSI), P. aeruginosa MP-3; details: Pseudomonas aeruginosa, MP3; strain MP-3, broth dilution
[5] = tested on: A. baumannii MP-15; assay: Broth dilution MIC determination (CLSI), A. baumannii MP-15; details: Acinetobacter baumannii, MP15; strain MP-15, broth dilution; read-out: MIC A. baumanii MP-15

Structure (SMILES)	MIC [1] [µg/mL]	MIC [2] [µg/mL]	MIC [3] [µg/mL]	MIC [4] [µg/mL]	MIC [5] [µg/mL]
CO[C@]1(C)C[C@@H](C)CN(C)[C@H](C2CN(CC3COC3)C2)COC(=O)C(C)(C)C(=O)[C@H](C)[C@H]1O[C@@H]1O[C@H](C)C[C@H](N(C)C)[C@H]1O [Compound 91, (3R,6R,8R,9R,10R)-9-(((2S,3R,4S,6R)-4-(dimethylamino)-3-hydroxy-6-methyltetrahydro-2H-pyran-2-yl)oxy)-8-methoxy-4,6,8,10,12,12-hexamethyl-3-(1-(oxetan-3-ylmethyl)azetidin-3-yl)-1-oxa-4-azacyclotridecane-11,13-dione]	> 32	< 4	4 to 32 (≈ 6.39 to 51.1 µM)	> 32	> 32
CO[C@]1(C)C[C@@H](C)CN(C)[C@H](C2CCN(CC(F)(F)F)CC2)COC(=O)C(C)(C)C(=O)[C@H](C)[C@H]1O[C@@H]1O[C@H](C)C[C@H](N(C)C)[C@H]1O [Compound 92, (3R,6R,8R,9R,10R)-9-(((2S,3R,4S,6R)-4-(dimethylamino)-3-hydroxy-6-methyltetrahydro-2H-pyran-2-yl)oxy)-8-methoxy-4,6,8,10,12,12-hexamethyl-3-(1-(2,2,2-trifluoroethyl)piperidin-4-yl)-1-oxa-4-azacyclotridecane-11,13-dione]	4 to 32 (≈ 6.01 to 48.1 µM)	4 to 32 (≈ 6.01 to 48.1 µM)	> 32	> 32	> 32
CO[C@]1(C)C[C@@H](C)CN(C)[C@H](c2ccc(-c3cccc(N)c3)cc2)COC(=O)C(C)(C)C(=O)[C@H](C)[C@H]1O[C@@H]1O[C@H](C)C[C@H](N(C)C)[C@H]1O [Compound 93, (3R,6R,8R,9R,10R)-3-(3′-Amino-[1,1′-biphenyl]-4-yl)-9-(((2S,3R,4S,6R)-4-(dimethylamino)-3-hydroxy-6-methyltetrahydro-2H-pyran-2-yl)oxy)-8-methoxy-4,6,8,10,12,12-hexamethyl-1-oxa-4-azacyclotridecane-11,13-dione]	4 to 32 (≈ 5.99 to 47.9 µM)	4 to 32 (≈ 5.99 to 47.9 µM)	> 32	> 32	> 32
CO[C@]1(C)C[C@@H](C)CN(C)[C@H]([C@H]2CCCN(C(=O)CN(C)C)C2)COC(=O)C(C)(C)C(=O)[C@H](C)[C@H]1O[C@@H]1O[C@H](C)C[C@H](N(C)C)[C@H]1O [Compound 96, (3R,6R,8R,9R,10R)-9-(((2S,3R,4S,6R)-4-(dimethylamino)-3-hydroxy-6-methyltetrahydro-2H-pyran-2-yl)oxy)-3-((S)-1-(dimethylglycyl)piperidin-3-yl)-8-methoxy-4,6,8,10,12,12-hexamethyl-1-oxa-4-azacyclotridecane-11,13-dione]	> 32	4 to 32 (≈ 5.98 to 47.8 µM)	> 32	> 32	> 32
CO[C@]1(C)C[C@@H](C)CN(C)[C@@H](C2CCNCC2)COC(=O)C(C)(C)C(=O)[C@H](C)[C@H]1O[C@@H]1O[C@H](C)C[C@H](N(C)C)[C@H]1O [Compound 98, (3S,6R,8R,9R,10R)-9-(((2S,3R,4S,6R)-4-(dimethylamino)-3-hydroxy-6-methyltetrahydro-2H-pyran-2-yl)oxy)-8-methoxy-4,6,8,10,12,12-hexamethyl-3-(piperidin-4-yl)-1-oxa-4-azacyclotridecane-11,13-dione]	4 to 32 (≈ 6.85 to 54.8 µM)	< 4	4 to 32 (≈ 6.85 to 54.8 µM)	> 32	> 32
CO[C@]1(C)C[C@@H](C)CN(C)[C@@H](C2CN(C)C2)COC(=O)C(C)(C)C(=O)[C@H](C)[C@H]1O[C@@H]1O[C@H](C)C[C@H](N(C)C)[C@H]1O [Compound 99, (3S,6R,8R,9R,10R)-9-(((2S,3R,4S,6R)-4-(dimethylamino)-3-hydroxy-6-methyltetrahydro-2H-pyran-2-yl)oxy)-8-methoxy-4,6,8,10,12,12-hexamethyl-3-(1-methylazetidin-3-yl)-1-oxa-4-azacyclotridecane-11,13-dione]	> 32	< 4	< 4	> 32	> 32
CO[C@]1(C)C[C@@H](C)CN(C)[C@H]([C@H]2CCN(C(=O)CN(C)C)C2)COC(=O)C(C)(C)C(=O)[C@H](C)[C@H]1O[C@@H]1O[C@H](C)C[C@H](N(C)C)[C@H]1O [Compound 100, (3R,6R,8R,9R,10R)-9-(((2S,3R,4S,6R)-4-(Dimethylamino)-3-hydroxy-6-methyltetrahydro-2H-pyran-2-yl)oxy)-3-((S)-1-(dimethylglycyl)pyrrolidin-3-yl)-8-methoxy-4,6,8,10,12,12-hexamethyl-1-oxa-4-azacyclotridecane-11,13-dione]	> 32	4 to 32 (≈ 6.11 to 48.9 µM)	4 to 32 (≈ 6.11 to 48.9 µM)	> 32	> 32
CO[C@]1(C)C[C@@H](C)CN(C)[C@H](C2CN(Cc3ccccc3)C2)COC(=O)C(C)(C)C(=O)[C@H](C)[C@H]1O[C@@H]1O[C@H](C)C[C@H](N(C)C)[C@H]1O [Compound 101, (3R,6R,8R,9R,10R)-3-(1-benzylazetidin-3-yl)-9-(((2S,3R,4S,6R)-4-(dimethylamino)-3-hydroxy-6-methyltetrahydro-2H-pyran-2-yl)oxy)-8-methoxy-4,6,8,10,12,12-hexamethyl-1-oxa-4-azacyclotridecane-11,13-dione]	4 to 32 (≈ 6.19 to 49.5 µM)	< 4	< 4	> 32	4 to 32 (≈ 6.19 to 49.5 µM)
CO[C@]1(C)C[C@@H](C)CN(C)[C@@H](C2CCCCC2)COC(=O)C(C)(C)C(=O)[C@H](C)[C@H]1O[C@@H]1O[C@H](C)C[C@H](N(C)C)[C@H]1O [Compound 102, (3S,6R,8R,9R,10R)-3-cyclohexyl-9-(((2S,3R,4S,6R)-4-(dimethylamino)-3-hydroxy-6-methyltetrahydro-2H-pyran-2-yl)oxy)-8-methoxy-4,6,8,10,12,12-hexamethyl-1-oxa-4-azacyclotridecane-11,13-dione]	> 32	> 32	> 32	> 32	> 32
CO[C@]1(C)C[C@@H](C)CN(C)[C@H]([C@H]2CCCN(C(C)C)C2)COC(=O)C(C)(C)C(=O)[C@H](C)[C@H]1O[C@@H]1O[C@H](C)C[C@H](N(C)C)[C@H]1O [Compound 104, (3R,6R,8R,9R,10R)-9-(((2S,3R,4S,6R)-4-(dimethylamino)-3-hydroxy-6-methyltetrahydro-2H-pyran-2-yl)oxy)-3-((S)-1-isopropylpiperidin-3-yl)-8-methoxy-4,6,8,10,12,12-hexamethyl-1-oxa-4-azacyclotridecane-11,13-dione]	4 to 32 (≈ 6.39 to 51.1 µM)	< 4	4 to 32 (≈ 6.39 to 51.1 µM)	> 32	> 32
CCCN1C[C@H](C)C[C@@](C)(OC)[C@H](O[C@@H]2O[C@H](C)C[C@H](N(C)C)[C@H]2O)[C@@H](C)C(=O)C(C)(C)C(=O)OC[C@H]1C1CN(CC(C)C)C1 [Compound 105, (3R,6R,8R,9R,10R)-9-(((2S,3R,4S,6R)-4-(dimethylamino)-3-hydroxy-6-methyltetrahydro-2H-pyran-2-yl)oxy)-3-(1-isobutylazetidin-3-yl)-8-methoxy-6,8,10,12,12-pentamethyl-4-propyl-1-oxa-4-azacyclotridecane-11,13-dione]	> 32	4 to 32 (≈ 6.25 to 50 µM)	> 32	> 32	> 32
CO[C@]1(C)C[C@@H](C)CN(C)[C@H]([C@@H]2CCCN2C)COC(=O)C(C)(C)C(=O)[C@H](C)[C@H]1O[C@@H]1O[C@H](C)C[C@H](N(C)C)[C@H]1O [Compound 106, (3R,6R,8R,9R,10R)-9-(((2S,3R,4S,6R)-4-(dimethylamino)-3-hydroxy-6-methyltetrahydro-2H-pyran-2-yl)oxy)-8-methoxy-4,6,8,10,12,12-hexamethyl-3-((S)-1-methylpyrrolidin-2-yl)-1-oxa-4-azacyclotridecane-11,13-dione]	> 32	> 32	> 32	> 32	> 32
CO[C@]1(C)C[C@@H](C)CN(C)[C@H](C2CCN(C(=O)CNCC(C)C)CC2)COC(=O)C(C)C(=O)[C@H](C)[C@H]1O[C@@H]1O[C@H](C)C[C@H](N(C)C)[C@H]1O (stereo partly drawn) [Compound 107, (3R,6R,8R,9R,10R)-9-(((2S,3R,4S,6R)-4-(dimethylamino)-3-hydroxy-6-methyltetrahydro-2H-pyran-2-yl)oxy)-3-(1-(isobutylglycyl)piperidin-4-yl)-8-methoxy-4,6,8,10,12-pentamethyl-1-oxa-4-azacyclotridecane-11,13-dione]	> 32	4 to 32 (≈ 5.86 to 46.9 µM)	4 to 32 (≈ 5.86 to 46.9 µM)	> 32	> 32
CO[C@]1(C)C[C@@H](C)CN(C)[C@@H]([C@@H]2CCN(C)C2)COC(=O)C(C)(C)C(=O)[C@H](C)[C@H]1O[C@@H]1O[C@H](C)C[C@H](N(C)C)[C@H]1O [Compound 109, (3S,6R,8R,9R,10R)-9-(((2S,3R,4S,6R)-4-(Dimethylamino)-3-hydroxy-6-methyltetrahydro-2H-pyran-2-yl)oxy)-8-methoxy-4,6,8,10,12,12-hexamethyl-3-((R)-1-methylpyrrolidin-3-yl)-1-oxa-4-azacyclotridecane-11,13-dione]	> 32	< 4	< 4	> 32	> 32
CO[C@]1(C)C[C@@H](C)CN(C)[C@@H]([C@@H]2CCN(CC(C)C)C2)COC(=O)C(C)(C)C(=O)[C@H](C)[C@H]1O[C@@H]1O[C@H](C)C[C@H](N(C)C)[C@H]1O [Compound 110, (3S,6R,8R,9R,10R)-9-(((2S,3R,4S,6R)-4-(dimethylamino)-3-hydroxy-6-methyltetrahydro-2H-pyran-2-yl)oxy)-3-((R)-1-isobutylpyrrolidin-3-yl)-8-methoxy-4,6,8,10,12,12-hexamethyl-1-oxa-4-azacyclotridecane-11,13-dione]	4 to 32 (≈ 6.39 to 51.1 µM)	< 4	< 4	> 32	> 32
